Here are results for three compounds from patent publication US20050281821A1, “Method and composition for angiogenesis inhibition” (priority 1999, published 2005).

Assay [1] deals with protease produced by HUVEC that unmasks the cryptic site in type-IV collagen. The assay can be described thus: Unmasking of HUIV26 cryptic site in collagen type-IV by HUVEC conditioned media. It counts as biochemical, human. On the procedure: Microtiter plates were coated with extracellular matrix components, each at a concentration of 25 μg/ml. A). Mab HUIV26 was added at a concentration of 1 μg/ml, followed 1 hour later with goat anti-mouse peroxidase labeled IgG. Denatured collagen type-I and collagen type-IV were prepared by boiling for 15 minutes before coating the plates. All data were corrected for any non-specific binding of secondary antibody. Data bars represent the mean optical density (O.D.)±standard deviations from triplicate wells. B). Microtiter wells were coated with triple helical collagen type-IV at 25 μg/ml. Concentrated (20×) HUVEC conditioned media was added to the wells in the presence or absence of EDTA, aprotinin or both and allowed to incubate for 1, 6 and 24 hours. The plates were next washed, blocked and incubated with Mab HUIV26 or control antibody. All data were corrected for non-specific secondary antibody binding. Data bars represent the mean optical density (O.D.)±standard deviations from triplicate wells. The following abbreviations are used in the figure Coll-I, collagen type-I; Coll-IV, collagen type-IV.

A further assay has as its system MDA-MB-435 tumor cells. The experiment in a line: Orthotopic MDA-MB-435 human breast tumor model in mice. Type of assay: in vivo, female nude mice. The protocol: The effect of antibodies D93 and H8 in an orthotopic human breast tumor model was evaluated. MDA-MB-435 tumor cells (0.4×10^6 cells/mouse) in 50 μl PBS were orthotopically implanted in the mammary fat pad of female nude mice (five to six weeks old). When tumors reached a mean volume of approximately 50-80 mm^3, mice were randomized (at least 10/group) and intravenous treatment with D93 and H8 at 1 μg (0.05 mg/kg) per dose, 10 μg (0.5 mg/kg), 100 μg (5 mg/kg) or 200 μg (10 mg/kg), or 100 μg control antibody DP28 in 100 μl PBS, or vehicle PBS 100 μl twice per week was initiated; in some studies, an untreated group was also evaluated.
Tumor sizes were measured every 7-20 days starting at the first day of treament and continued until day 50-80 post-treatment. Tumor length (L) and width (W) were measured with calipers and tumor volumes were calculated using the formula: (L×W^2)/2 where L was the length of the tumor or the largest diameter, and W was the width or shortest diameter. Animals were euthanized at the end of the study and final tumor measurements were recorded.
The effect of combination treatment of D93 with Taxol was evaluated for eight weeks in the orthotopic MDA-MB-435 human breast tumor model in mice. MDA-MB-435 tumor cells were implanted into female nude mice as described in Example 20. Animals were randomized into seven treatment groups (n=12-13/group) with mean tumor volume 78 mm^3. D93 was administered at 100 μg/dose (5 mg/kg) twice weekly. Taxol was administered intraperitoneally at 3 or 6 mg/kg q.w. A vehicle control group of animals received PBS twice weekly and HBSS once weekly. Another control group received DP28 control antibody, administered at 100 μg/dose, twice weekly. Treatments with D93 and Taxol, as well as controls, were initiated on the same day (Day 1).
Tumor sizes were measured every 7 days starting at the first day of treatment and continued until day 55 post-treatment. Measurements were recorded as (L×W^2)/2 where L is the length of the tumor or the largest diameter, and W is the width or shortest diameter. Animals were euthanized at the end of the study and the final measurements were recorded.
In a study similar to that described in Example 21, Taxol was administered intraperitoneally at 6 or 10 mg/kg q.w. Animals were treated for 51 days.

Assay [2] has as its system MX-1 human breast carcinoma cells. The assay can be described thus: Non-orthotopic MX-1 human breast tumor model. Type of assay: in vivo, SCID mice. The protocol:
A study was performed in the staged subcutaneous (non-orthotopic) MX-1 breast tumor model. Female, 7 week-old, SCID mice were injected in the dorsal right flank with 0.75×10^7 MX-1 human breast carcinoma cells in 100 μl of PBS. Treatments were initiated when MX-1 tumors grew to a mean volume of 115 mm^3. The animals were randomly divided into 5 treatment groups, each having 6-7 animals per group. Animals were treated with D93 (i.v., 2×/week) and/or Taxol 100 μl volume (i.p. 2×/week), as outlined below. One control group of animals remained untreated, and another received PBS (vehicle) only. The animals were treated for 25 days.
Tumor size was measured every 7-20 days starting at first day-post randomization and continued until the end of the study. Measurements were recorded as (L×W^2)/2 where L is the length of the tumor or the largest diameter, and W is the width or shortest diameter. Animals were euthanized at the end of the study and final tumor measurements were recorded.

[3] abbreviates: Table IV, D93 or DP-28 100 μg i.v. 2×/week and/or Taxol 6 mg/kg i.p. 1×/week.
The mark [4] stands for this setting: Table IV, Taxol 3 mg/kg i.p. 1×/week alone or with D93 100 μg i.v. 2×/week.
Where [5] appears, read: Table V, D93 or DP-28 100 μg i.v. 2×/week and/or Taxol 6 mg/kg i.p. 1×/week.
Where [6] appears, read: Table V, Taxol 10 mg/kg i.p. 1×/week alone or with D93 100 μg i.v. 2×/week.
The mark [7] stands for this setting: Table VI, D93 100 μg i.v. 2×/week and/or Taxol 6 mg/kg i.p. 2×/week.

For `O=C(O)CN(CCN(CC(=O)O)CC(=O)O)CC(=O)O` [EDTA], the “effect on the HUVEC protease that unmasks the cryptic site in type-IV collagen” value in assay [1] (FIG. 11B) was “inhibited”.

Turning to aprotinin, the “block of Mab HUIV26 reactivity observed in the absence of protease inhibitor” value is recorded as 40% in assay [1] (6 hour time point) and 70% in assay [1] (24 hour time point). Also, the “effect on unmasking of cryptic site(s) in type-IV collagen” value in assay [1] (one hour of incubation with HUVEC conditioned media) is reported as “little effect”.

Consider `CC(=O)O[C@H]1C(=O)[C@@]2(C)[C@H]([C@H](OC(=O)c3ccccc3)[C@]3(O)C[C@H](OC(=O)[C@H](O)[C@@H](NC(=O)c4ccccc4)c4ccccc4)C(C)=C1C3(C)C)[C@]1(OC(C)=O)CO[C@@H]1C[C@@H]2O` [Taxol, paclitaxel], for which, in the assay with MDA-MB-435 tumor cells (Example 21, D93 100 μg/dose twice per week and/or Taxol 6 mg/kg q.w.), the “inhibition of tumor volume compared to DP28” value is given as 42%. Also, in the assay with MDA-MB-435 tumor cells (Example 21, Taxol 3 mg/kg q.w. alone or plus D93 100 μg/dose twice per week), the “inhibition of tumor growth compared to DP-28” value amounted to 6%. Moreover, in the assay on MDA-MB-435 tumor cells (setting [3]), the “Tumor volume, Day 1” value worked out at 78 mm^3; the “Tumor volume, Day 8” value was determined as 203 mm^3; the “Tumor volume, Day 27” value turned out to be 315 mm^3; the “Tumor volume, Day 34” value came to 399 mm^3. For the same compound, in the assay with MDA-MB-435 tumor cells (setting [3]), the “Tumor volume, Day 41” value turned out to be 530 mm^3; the “Tumor volume, Day 48” value turned out to be 688 mm^3; the “Tumor volume, Day 54” value amounted to 793 mm^3; the “Tumor volume, Day 55” value came out at 787 mm^3. In addition, in the assay with MDA-MB-435 tumor cells (setting [4]), the “Tumor volume, Day 1” value amounted to 78 mm^3; the “Tumor volume, Day 8” value was found to be 257 mm^3; the “Tumor volume, Day 27” value turned out to be 361 mm^3; the “Tumor volume, Day 34” value is 476 mm^3. Further, in the assay with MDA-MB-435 tumor cells (setting [4]), the “Tumor volume, Day 41” value came to 604 mm^3; the “Tumor volume, Day 48” value amounted to 815 mm^3; the “Tumor volume, Day 54” value was 1034 mm^3; the “Tumor volume, Day 55” value came to 1275 mm^3. Further, in the assay on MDA-MB-435 tumor cells (setting [5]), the “Tumor volume, Day 1” value turned out to be 58.55 mm^3; the “Tumor volume, Day 21” value was 210.6 mm^3; the “Tumor volume, Day 32” value stood at 392.04 mm^3; the “Tumor volume, Day 39” value was found to be 559.9 mm^3. Besides, in the assay on MDA-MB-435 tumor cells (setting [5]), the “Tumor volume, Day 45” value is on record as 771 mm^3 and the “Tumor volume, Day 51” value was found to be 866 mm^3. Moreover, in the assay with MDA-MB-435 tumor cells (setting [6]), the “Tumor volume, Day 1” value is reported as 58.6 mm^3; the “Tumor volume, Day 21” value was 196.5 mm^3; the “Tumor volume, Day 32” value was found to be 361.56 mm^3; the “Tumor volume, Day 39” value came out at 487.05 mm^3. For the same compound, in the assay with MDA-MB-435 tumor cells (setting [6]), the “Tumor volume, Day 45” value amounted to 672 mm^3 and the “Tumor volume, Day 51” value was 820 mm^3. Also, in assay [2] (FIG. 39, D93 100 μg and/or Taxol 6 mg/kg, 25 days), the “effect on tumor growth” value is on record as “inhibit tumor growth”. In assay [2] (setting [7]), the “Tumor volume, Day 1” value was 119 mm^3; the “Tumor volume, Day 5” value worked out at 224.19 mm^3; the “Tumor volume, Day 12” value stood at 602 mm^3; the “Tumor volume, Day 19” value turned out to be 761.89 mm^3. In addition, the “Tumor volume, Day 26” value in assay [2] (setting [7]) was determined as 1196 mm^3.
